Source: patent US11142718B2, “Ecofriendly and biodegradable lubricant formulation and process for preparation thereof” (Council of Scientific & Industrial Research, priority 2017, dated 2021)
Like-named read-outs stand apart in the source and are kept apart here.

Tests used:
Type in all cases: physicochemical
[1] = Kinematic viscosity (IS: 1448: P-25); details: for viscosity at 100° C. / viscosity at 0° C.: in cSt
[2] = Pour point (IS: 1448: P-10)
Method: (§1) The synthesized products have the following characteristics: • a. The prepared esters have viscosity grade of 31.0 to 47.0 cSt at 40° C. as per P-25 matching the specification and a high viscosity index of 161-171 as per P-56. • b. […] The biodegradability of the synthesized ester is above 95% as per the standard ASTM D: 5864 test method for biodegradability. • e. The products are non toxic to the sewage bacteria. • f. The conventional additives which are suitable for mineral oils are also giving positive response with this ester. • g. The products have good anti wear properties with wear scar diameter of 0.350 mm at 40 kgf load as per ASTM D: 4172B. • h. The products have excellent load bearing capacity. • i. The products have good lubricity. • j. The products have good oxidative stability. • k. The products have no evaporation loss. • l. The products have good adherence to metal characteristics. • m. The products have good corrosion inhibiting characteristics. • n. […] Synthetic biodegradable polyol complex ester lubricating oils have excellent biodegradability, a high viscosity index and a low pour point, a high flash point, very good lubricity, good oxidative stability and property of preventing corrosion and suitable for use with sealing materials. • p.

[3] = Viscosity index (P-56)
Method: (§2) In an embodiment of the present invention the polyol complex ester base oils may be selected from the viscosity range of 34.26 to 43.54 cSt at 40° C. as per IS: 1448: P-25 matching the specification and a high viscosity index of 161-171 as per P-56.
as §1

[4] = Kinematic viscosity (IS: 1448: P-25); details: for viscosity at 40° C.: in cSt; for KV in cst at 40° C.: P-25
Method: as §2, §1

[5] = Density (ASTM D: 4052)
[6] = Adherence to metal (drop diameter change, contact angle); details: polished mild steel substrates
[7] = Evaporation loss (P-136)
[8] = Acidity (P-2)

viscosity at 100° C. [1] | pour point [2] | viscosity index [3] | viscosity at 40° C. [4] | Density, d4^20 [5] | KV in cst at 0° C. [1] | viscosity at 0° C. [1] | KV in cst at −35° C. [1] | Adherence to metal, change in diameter of the drop, percent [6] | pour point ([2]; P-10) | Evaporation loss, % by mass [7] | viscosity index ([3]; P-56) | KV in cst at 40° C. [4] | Acidity, Inorganic [8] | Acidity, Organic [8] | Structure (SMILES)
12.83 | > −24 °C | 138 | 91.3 |  |  |  |  |  |  |  |  |  |  |  | CCCCC(CC)COC(=O)CCCCC(=O)OCC(CC)(CC)COC(=O)CCCCC(=O)OCC(CC)CCCC (centres unmarked) [DEADEH, 2,2-diethyl 1,3-propane di adipic 2 ethyl 1 hexanoate]
 | > −39 °C | 171 | 47.0 | 0.9627 gm/ml | 408.23 cst | 408.23 | >5000 cst | 13% | <−39 °C | 0.42 % by mass | 171 | 47.00 cst | Nil | 0.0635 mg KoH/gm of oil | CCCCC(CC)COC(=O)CCCCCCCC(=O)OCC(CC)(CC)COC(=O)CCCCCCCC(=O)OCC(CC)CCCC (centres unmarked) [DEAZEH, 2,2-diethyl 1,3-propane diazelaic 2 ethyl 1 hexanoate]
7.24 | > −39 °C | 165 | 36.8 |  |  |  |  |  |  |  |  |  |  |  | CCCCC(CC)COC(=O)CCCCCCCCC(=O)OCC(CC)(CC)COC(=O)CCCCCCCCC(=O)OCC(CC)CCCC (centres unmarked) [DESEH, 2,2-diethyl 1,3-propane disebacic 2 ethyl 1 hexanoate]
 | > −39 °C | 161 | 31.00 | 0.9915 gm/ml | 323.98 cst | 323.98 | >4000 cst | 12% | <−39 °C | 0.48 % by mass | 161 | 31.00 cst | Nil | 0.0817 mg KoH/gm of oil | CCCCC(CC)COC(=O)CCCCC(=O)OCC(C)(C)COC(=O)CCCCC(=O)OCC(CC)CCCC (centres unmarked) [DMADEH, 2,2-dimethyl 1,3-propane di adipic 2 ethyl 1 hexanoate]
5.60 | > −27 °C | 169 | 25.44 |  |  |  |  |  |  |  |  |  |  |  | CCCCC(CC)COC(=O)CCCCCCCC(=O)OCC(C)(C)COC(=O)CCCCCCCC(=O)OCC(CC)CCCC (centres unmarked) [DMAZEH, 2,2-dimethyl 1,3-propane diazelaic 2 ethyl 1 hexanoate]
14.8 | > −24 °C | 172 | 90.33 |  |  |  |  |  |  |  |  |  |  |  | CCCCC(CC)COC(=O)CCCCCCCCC(=O)OCC(C)(C)COC(=O)CCCCCCCCC(=O)OCC(CC)CCCC (centres unmarked) [DMSEH, 2,2-dimethyl 1,3-propane disebacid 2 ethyl 1 hexanoate]

Structure (SMILES) | viscosity at 100° C. [1] | pour point [2] | viscosity index [3] | viscosity at 40° C. [4] | Density, d4^20 [5] | KV in cst at 0° C. [1] | viscosity at 0° C. [1] | KV in cst at −35° C. [1] | Adherence to metal, change in diameter of the drop, percent [6] | pour point ([2]; P-10) | Evaporation loss, % by mass [7] | viscosity index ([3]; P-56) | KV in cst at 40° C. [4] | Acidity, Inorganic [8] | Acidity, Organic [8]
CCCCC(CC)COC(=O)CCCCC(=O)OCC(CC)(COC(=O)CCCCC(=O)OCC(CC)CCCC)COC(=O)CCCCC(=O)OCC(CC)CCCC (centres unmarked) [THADEH, 1,1,1-trishydroxymethyl propane triadipic 2 ethyl 1 hexanoate] | 10.17 | > −15 °C | 196 | 26.51 |  |  |  |  |  |  |  |  |  |  | 
CCCCC(CC)COC(=O)CCCCCCCC(=O)OCC(CC)(COC(=O)CCCCCCCC(=O)OCC(CC)CCCC)COC(=O)CCCCCCCC(=O)OCC(CC)CCCC (centres unmarked) [THAZEH, 1,1,1-trishydroxymethyl propane triazilaic 2 ethyl 1 hexanoate] | 8.53 | > −27 °C | 165 | 46.07 |  |  |  |  |  |  |  |  |  |  | 
CCCCC(CC)COC(=O)CCCCCCCCC(=O)OCC(CC)(COC(=O)CCCCCCCCC(=O)OCC(CC)CCCC)COC(=O)CCCCCCCCC(=O)OCC(CC)CCCC (centres unmarked) [THSEH, 1,1,1-trishydroxymethyl propane trisebacic 2 ethyl 1 hexanoate] | 16.87 | > −24 °C | 196 | 111 |  |  |  |  |  |  |  |  |  |  | 
